Laboratory results taken from patent US20230120564A1, “PYRIDO[3,4-D]PYRIMIDINE DERIVATIVE AND THERAPEUTIC PHARMACEUTIC COMPOSITION COMPRISING SAME” (KOREA INSTITUTE OF SCIENCE AND TECHNOLOGY, priority 2020, published 2023).

Columns and labels:
[1] = test system: Ba/F3 (parental); assay: Inhibition of cell proliferation (GI50); format: cell-based; details: Mus musculus, BaF3; Ba/F3 (parental) cell line; read-out: Proliferation inhibitory activity (GI50, μM) Ba/F3 (parental)
Description: The inhibitory activities of the compounds of the present invention against the proliferation of the Ba/F3 (parental) cell line were measured and the GI50 values thereof were calculated.

[2] = test system: OCI-AML3 (N-Ras Q61L); assay: Inhibition of cell proliferation (GI50); format: cell-based; details: Homo sapiens, OCI-AML-3; OCI-AML3 cell line; read-out: Proliferation inhibitory activity (GI50, μM) OCI-AML3 (N-Ras Q61L)
Description: (§1) The inhibitory activities of the compounds of the present invention against the proliferation of the mt-NRAS (G12D) Ba/F3 and […] (mt-NRAS) cell lines were measured and the GI50 values thereof were calculated.
Referring to the results in Table 2, it can be seen that the compound of the present invention has inhibitory activity against the proliferation of the human acute myeloid leukemia cell line (OCI-AML3) having the NRAS mutant gene, and the effect thereof is remarkable. Therefore, it can be seen that the compound of the present invention is particularly effective as a therapeutic agent for acute myeloid leukemia (AML).

[3] = test system: Ba/F3 (N-Ras G12D); assay: Inhibition of cell proliferation (GI50); format: cell-based; details: Mus musculus, BaF3; mt-NRAS (G12D) Ba/F3 cell line; read-out: Proliferation inhibitory activity (GI50, μM) Ba/F3 (N-Ras G12D)
Description: as §1

[4] = target: T1, GCK (Homo sapiens, UniProt Q12851); assay: Kinase inhibitory activity, IC50; format: biochemical
T1 sequence (Q12851 1-820): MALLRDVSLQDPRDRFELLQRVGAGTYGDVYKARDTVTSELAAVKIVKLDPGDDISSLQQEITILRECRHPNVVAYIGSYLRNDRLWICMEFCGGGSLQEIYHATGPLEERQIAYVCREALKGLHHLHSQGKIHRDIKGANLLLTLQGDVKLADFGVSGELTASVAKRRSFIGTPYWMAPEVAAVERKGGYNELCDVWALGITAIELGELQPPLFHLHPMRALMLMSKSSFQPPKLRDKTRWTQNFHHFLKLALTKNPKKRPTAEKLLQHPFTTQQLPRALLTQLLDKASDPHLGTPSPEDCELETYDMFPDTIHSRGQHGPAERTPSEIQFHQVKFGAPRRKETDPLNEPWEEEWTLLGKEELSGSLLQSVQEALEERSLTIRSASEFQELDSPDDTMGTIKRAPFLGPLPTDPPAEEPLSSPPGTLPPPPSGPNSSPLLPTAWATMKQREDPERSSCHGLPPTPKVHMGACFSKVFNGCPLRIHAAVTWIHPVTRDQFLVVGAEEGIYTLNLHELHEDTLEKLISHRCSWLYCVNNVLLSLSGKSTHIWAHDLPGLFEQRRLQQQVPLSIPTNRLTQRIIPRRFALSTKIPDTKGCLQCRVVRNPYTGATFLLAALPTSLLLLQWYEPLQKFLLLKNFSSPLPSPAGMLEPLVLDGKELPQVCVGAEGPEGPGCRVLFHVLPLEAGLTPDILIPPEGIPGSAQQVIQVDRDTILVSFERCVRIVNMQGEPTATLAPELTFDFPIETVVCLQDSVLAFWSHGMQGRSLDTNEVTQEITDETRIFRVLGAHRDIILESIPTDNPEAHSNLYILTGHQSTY
Description: (§2) The inhibitory activities of the compounds of the present invention against two kinases, GCK and ACK1, were measured, and the IC50 values thereof were calculated. As a control, the following compound GNF7 was used.

[5] = target: ACK1 (Homo sapiens, UniProt Q07912); assay: Kinase inhibitory activity, IC50; format: biochemical
ACK1, sequence (Q07912 whole entry): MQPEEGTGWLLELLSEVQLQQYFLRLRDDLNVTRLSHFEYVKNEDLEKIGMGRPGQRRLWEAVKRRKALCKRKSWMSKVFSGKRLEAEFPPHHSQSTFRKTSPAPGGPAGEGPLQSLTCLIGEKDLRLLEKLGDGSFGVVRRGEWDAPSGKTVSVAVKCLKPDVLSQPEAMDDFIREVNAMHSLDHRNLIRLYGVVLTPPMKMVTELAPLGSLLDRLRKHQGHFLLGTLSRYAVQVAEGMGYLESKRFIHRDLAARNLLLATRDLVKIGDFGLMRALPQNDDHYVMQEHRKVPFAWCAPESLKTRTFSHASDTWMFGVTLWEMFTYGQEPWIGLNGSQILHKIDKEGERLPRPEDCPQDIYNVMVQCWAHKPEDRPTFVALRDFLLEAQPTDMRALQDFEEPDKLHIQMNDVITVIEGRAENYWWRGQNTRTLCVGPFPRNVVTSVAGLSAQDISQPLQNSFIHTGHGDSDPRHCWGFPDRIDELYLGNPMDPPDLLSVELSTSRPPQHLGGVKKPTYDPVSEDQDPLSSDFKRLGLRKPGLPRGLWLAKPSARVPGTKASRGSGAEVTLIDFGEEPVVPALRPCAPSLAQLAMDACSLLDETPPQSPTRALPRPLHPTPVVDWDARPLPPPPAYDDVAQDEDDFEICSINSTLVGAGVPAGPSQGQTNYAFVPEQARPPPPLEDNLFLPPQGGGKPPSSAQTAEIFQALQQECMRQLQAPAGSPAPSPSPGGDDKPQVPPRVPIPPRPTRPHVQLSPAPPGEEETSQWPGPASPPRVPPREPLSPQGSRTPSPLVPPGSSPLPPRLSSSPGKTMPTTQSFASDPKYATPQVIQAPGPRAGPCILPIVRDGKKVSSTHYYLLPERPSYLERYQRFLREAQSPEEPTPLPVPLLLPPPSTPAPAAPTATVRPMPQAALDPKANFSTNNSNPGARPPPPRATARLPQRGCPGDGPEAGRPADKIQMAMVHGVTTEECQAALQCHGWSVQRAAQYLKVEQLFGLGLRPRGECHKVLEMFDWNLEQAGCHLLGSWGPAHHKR
Description: as §2

Row | Compound | GI50 [1] | GI50 [2] | GI50 [3] | IC50 [4] | IC50 [5]
1 | Cc1ccc(Nc2ncc3cc(-c4cc(NC(=O)c5cccc(C(F)(F)F)c5)ccc4C)nc(Cl)c3n2)cn1 [Compound No. 1, N-(3-(8-chloro-2-((6-methylpyridin-3-yl)amino)pyrido[3,4-d]pyrimidin-6-yl)-4-methylphenyl)-3-(trifluoromethyl)benzamide] | > 5 µM | < 0.5 µM | < 0.5 µM | > 10000 nM | 100 to 1000 nM
2 | C=Cc1nc(-c2cc(NC(=O)c3cccc(C(F)(F)F)c3)ccc2C)cc2cnc(Nc3ccc(C)nc3)nc12 [Compound No. 2, N-(4-methyl-3-(2-((6-methylpyridin-3-yl)amino)-8-vinylpyrido[3,4-d]pyrimidin-6-yl)phenyl)-3-(trifluoromethyl)benzamide] | 3 to 5 µM | 0.5 to 3 µM | < 0.5 µM | – | –
3 | CCc1nc(-c2cc(NC(=O)c3cccc(C(F)(F)F)c3)ccc2C)cc2cnc(Nc3ccc(C)nc3)nc12 [Compound No. 3, N-(3-(8-ethyl-2-((6-methylpyridin-3-yl)amino)pyrido[3,4-d]pyrimidin-6-yl)-4-methylphenyl)-3-(trifluoromethyl)benzamide] | > 5 µM | 0.5 to 3 µM | 0.5 to 3 µM | > 10000 nM | 100 to 1000 nM
4 | COc1nc(-c2cc(NC(=O)c3cccc(C(F)(F)F)c3)ccc2C)cc2cnc(Nc3ccc(C)nc3)nc12 [Compound No. 8, N-(3-(8-methoxy-2-((6-methylpyridin-3-yl)amino)pyrido[3,4-d]pyrimidin-6-yl)-4-methylphenyl)-3-(trifluoromethyl)benzamide] | 3 to 5 µM | < 0.5 µM | 0.5 to 3 µM | – | –
5 | Cc1ccc(Nc2ncc3cc(-c4cc(NC(=O)c5ccc(CN6CCOCC6)c(C(F)(F)F)c5)ccc4C)ncc3n2)cn1 [Compound No. 12, N-(4-methyl-3-(2-((6-methylpyridin-3-yl)amino)pyrido[3,4-d]pyrimidin-6-yl)phenyl)-4-(morpholinemethyl)-3-(trifluoromethyl)benzamide] | > 5 µM | < 0.5 µM | < 0.5 µM | – | –
6 | Cc1ccc(Nc2ncc3cc(-c4cc(NC(=O)c5cc(-n6cnc(C)c6)cc(C(F)(F)F)c5)ccc4C)ncc3n2)cn1 [Compound No. 13, 3-(4-methyl-1H-imidazol-1-yl)-N-(4-methyl-3-(2-((6-methylpyridin-3-yl)amino)pyrido[3,4-d]pyrimidin-6-yl)phenyl)-5-(trifluoromethyl)benzamide] | > 5 µM | < 0.5 µM | < 0.5 µM | – | –
7 | Cc1ccc(Nc2ncc3cc(-c4cc(NC(=O)c5cc(N6CCOCC6)cc(C(F)(F)F)c5)ccc4C)ncc3n2)cn1 [Compound No. 14, N-(4-methyl-3-(2-((6-methylpyridin-3-yl)amino)pyrido[3,4-d]pyrimidin-6-yl)phenyl)-3-morpholino-5-(trifluoromethyl)benzamide] | 0.5 to 3 µM | < 0.5 µM | < 0.5 µM | – | –
8 | Cc1ccc(NC(=O)c2cccc(C(F)(F)F)c2)cc1-c1cc2cnc(N)nc2cn1 [Compound No. 17, N-(3-(2-aminopyrido[3,4-d]pyrimidin-6-yl)-4-methylphenyl)-3-(trifluoromethyl)benzamide] | > 5 µM | < 0.5 µM | < 0.5 µM | – | –
9 | Cc1ccc(NC(=O)c2cccc(C(F)(F)F)c2)cc1-c1cc2cnc(NCCO)nc2cn1 [Compound No. 18, N-(3-(2-((2-hydroxyethyl)amino)pyrido[3,4-d]pyrimidin-6-yl)-4-methylphenyl)-3-(trifluoromethyl)benzamide] | > 5 µM | < 0.5 µM | < 0.5 µM | 100 to 1000 nM | 100 to 1000 nM
10 | Cc1ccc(NC(=O)c2cccc(C(F)(F)F)c2)cc1-c1cc2cnc(NC3CC3)nc2cn1 [Compound No. 19, N-(3-(2-(cyclicpropylamino)-pyrido[3,4-d]pyrimidin-6-yl)-4-methylphenyl)-3-(trifluoromethyl)benzamide] | 0.5 to 3 µM | < 0.5 µM | < 0.5 µM | 100 to 1000 nM | 100 to 1000 nM
11 | Cc1ccncc1Nc1ncc2cc(-c3cc(NC(=O)c4cccc(C(F)(F)F)c4)ccc3C)ncc2n1 [Compound No. 23, N-(4-methyl-3-(2-((4-methylpyridin-3-yl)amino)pyrido[3,4-d]pyrimidin-6-yl)phenyl)-3-(trifluoromethyl)benzamide] | < 0.5 µM | < 0.5 µM | < 0.5 µM | – | –
12 | Cc1ccc(Nc2ncc3cc(-c4cc(NC(=O)c5cccc(C(F)(F)F)c5)ccc4C)ncc3n2)c(C)n1 [Compound No. 24, N-(3-(2-((2,6-dimethylpyridin-3-yl)amino)pyrido[3,4-d]pyrimidin-6-yl)-4-methylphenyl)-3-(trifluoromethyl)benzamide] | > 5 µM | < 0.5 µM | < 0.5 µM | – | –
13 | Cc1ccc(Nc2ncc3c(n2)N(C)C(=O)N(c2cc(NC(=O)c4cccc(C(F)(F)F)c4)ccc2C)C3)cn1 [GNF 7, reference compound] | 3 to 5 µM | < 0.5 µM | 0.5 to 3 µM | < 100 nM | < 100 nM
